From patent US10167284B2, “Spirocyclic compounds as agonists of the muscarinic M1 receptor and/or M4 receptor” (HEPTARES THERAPEUTICS LIMITED, priority 2015, dated 2019) come the findings set out here.

The structures appear in SMILES notation.

In experiment [1] the target is T1, human muscarinic M1 receptor (Homo sapiens, UniProt P11229).
T1 construct: expressed in transfected cells
T1 sequence (P11229 1-460): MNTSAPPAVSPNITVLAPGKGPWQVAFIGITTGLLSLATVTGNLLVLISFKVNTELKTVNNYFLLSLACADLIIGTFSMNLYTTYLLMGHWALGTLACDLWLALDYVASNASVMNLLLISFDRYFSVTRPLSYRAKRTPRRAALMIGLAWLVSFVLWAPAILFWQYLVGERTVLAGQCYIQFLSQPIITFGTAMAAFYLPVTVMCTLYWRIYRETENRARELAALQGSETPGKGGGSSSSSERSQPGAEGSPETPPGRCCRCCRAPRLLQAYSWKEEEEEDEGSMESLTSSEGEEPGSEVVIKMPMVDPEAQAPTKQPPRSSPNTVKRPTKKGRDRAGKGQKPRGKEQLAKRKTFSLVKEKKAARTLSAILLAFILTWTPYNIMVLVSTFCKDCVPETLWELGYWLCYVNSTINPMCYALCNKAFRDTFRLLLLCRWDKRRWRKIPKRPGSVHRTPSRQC
Put plainly: Alphascreen Surefire phospho-ERK1/2 functional assay, M1. The class given is cell-based. Particulars: for M1 % Emax cf. ACh / EC50: CHO cells stably expressing human M1; for M1 % Emax cf. ACh / Emax: Emax relative to ACh; for EC50: phospho-ERK1/2, read-out: pEC50 M1 (converted); for Emax: CHO, read-out: M1 % Emax cf. ACh, CHO cells stably expressing human M1.

Experiment [2] concerns the target T2, human muscarinic M4 receptor (Homo sapiens, UniProt P08173).
T2 construct: expressed in transfected cells
T2 sequence (P08173 1-479): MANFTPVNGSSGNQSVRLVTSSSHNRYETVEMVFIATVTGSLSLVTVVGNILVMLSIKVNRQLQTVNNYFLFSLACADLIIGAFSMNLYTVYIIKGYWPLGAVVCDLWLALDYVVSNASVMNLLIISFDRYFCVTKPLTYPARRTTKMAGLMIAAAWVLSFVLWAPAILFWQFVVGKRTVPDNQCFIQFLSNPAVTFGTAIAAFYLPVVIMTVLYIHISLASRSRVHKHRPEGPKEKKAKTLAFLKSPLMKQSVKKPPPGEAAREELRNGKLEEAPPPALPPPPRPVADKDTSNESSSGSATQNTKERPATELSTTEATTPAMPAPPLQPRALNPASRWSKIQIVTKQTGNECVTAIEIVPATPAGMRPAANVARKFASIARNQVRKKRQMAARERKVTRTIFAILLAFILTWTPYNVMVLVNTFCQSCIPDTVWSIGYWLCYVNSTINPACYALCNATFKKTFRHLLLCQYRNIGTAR
Put plainly: Alphascreen Surefire phospho-ERK1/2 functional assay, M4. The class given is cell-based. The conditions noted are these: for M4 % Emax cf. ACh / EC50: CHO cells stably expressing human M4; for M4 % Emax cf. ACh / Emax: Emax relative to ACh; for EC50: phospho-ERK1/2, read-out: pEC50 M4 (converted); for Emax: CHO, read-out: M4 % Emax cf. ACh, CHO cells stably expressing human M4.

By Emax is commonly meant the maximal effect, on the per cent scale that the assay sets.

With `CCCN1C(=O)OC2(CCN(C3CC4(CCN(C(=O)OCC)C4)C3)CC2)C1(C)C` (single isomer, unassigned) [4-37 Isomer 2], in experiment [1], the “M1 % Emax cf. ACh” value is given as “(29) %” and the EC50 is 794 nM. In experiment [2], the “M4 % Emax cf. ACh” value is given as “(13) %” and the EC50 was above 20000 nM.

Turning to `CC(C)OC(=O)N1CCC2(CC(N3CCC4(CC3)CNC(=O)O4)C2)C1` (single isomer, unassigned) [4-4 Isomer 2], in experiment [1], the EC50 is 631 nM and the Emax amounted to 52%. In experiment [2], the EC50 was 398 nM and the Emax came to 24%.

`CCOC(=O)N1CCC2(CC(N3CCC4(CC3)OC(=O)N(CC)C4(C)C)C2)C1` (single isomer, unassigned) [4-35 Isomer 2]: in experiment [1], the EC50 is 1000 nM and the Emax was 57%. Moreover, in experiment [2], the EC50 was 31.6 nM and the maximum response (Emax) stood at 108%.

Take `CCOC(=O)N1CCC2(CC(N3CCC4(CC3)OC(=O)NC43CC(F)(F)C3)C2)C1` (single isomer, unassigned) [4-30 Isomer 1]: the figures for the EC50 in experiment [1] and in experiment [2] were 1260 nM and 158 nM, respectively. Further, the Emax in experiment [1] turned out to be 49%; in experiment [2], 63%.

`CCC1NC(=O)CC12CCN(C1CC3(CCN(C(=O)OC)C3)C1)CC2` (single isomer, unassigned) [3-4 Isomer 1]: in experiment [1], the “M1 % Emax cf. ACh” value is listed as “(35) %” and the EC50 is 3160 nM. For the same compound, in experiment [2], the “M4 % Emax cf. ACh” value is given as “(30) %” and the EC50 is 316 nM.

Take `CCOC(=O)N1CC2(CC(N3CCC4(CC3)OC(=O)N3CCCC34)C2)C1` (centres unmarked) [Example 2-5, ethyl 6-(3′-oxotetrahydro-1H-spiro[piperidine-4,1′-pyrrolo[1,2-c][1,3]oxazol]-1-yl)-2-azaspiro[3.3]heptane-2-carboxylate]: in experiment [1], the EC50 is 1000 nM and the Emax was determined as 28%. In experiment [2], the EC50 is 126 nM and the maximal response (Emax) was determined as 34%.

On to `COC(=O)N1CCC2(CC(N3CCC4(CC3)OC(=O)N3CCCC34)C2)C1` (single isomer, unassigned) [4-45 Isomer 2], for which the EC50 in experiment [1] was 1000 nM; in experiment [2], 316 nM. In addition, the Emax came to 59% in experiment [1] and 36% in experiment [2].

In the case of `CCOC(=O)N1CCC2(CC(N3CCC4(CC3)OC(=O)NC4(C)C)C2)C1` (single isomer, unassigned) [4-27 Isomer 1], in experiment [1], the “M1 % Emax cf. ACh” value is given as “(65) %” and the EC50 was 10000 nM. For the same compound, in experiment [2], the “M4 % Emax cf. ACh” value is “(59) %” and the EC50 is 251 nM.

`CCOC(=O)N1CCC2(CC(N3CCC4(CC3)OC(=O)N(CC)C4CC)C2)C1` (single isomer, unassigned) [4-22 Isomer 1]: in experiment [1], the “M1 % Emax cf. ACh” value was “(13) %” and the EC50 is above 20000 nM. In addition, in experiment [2], the “M4 % Emax cf. ACh” value is “(18) %” and the EC50 is above 20000 nM.

In the case of `CCOC(=O)N1CCC2(CC(N3CCC4(CC3)OC(=O)NC4Cc3ccccn3)C2)C1` (single isomer, unassigned) [4-19 Isomer 2 (racemic)], the EC50 in experiment [1] was 200 nM; in experiment [2] it was 794 nM. Further, the values for the Emax in experiment [1] and in experiment [2] were 98% and 72%, respectively.

For the compound `CCOC(=O)N1CCC2(CC(N3CCC4(CC3)OC(=O)NC4C3CCC3)C2)C1` (single isomer, unassigned) [4-15 Isomer 1 (racemic)], in experiment [1], the EC50 was 501 nM and the Emax worked out at 85%. Besides, in experiment [2], the EC50 was 158 nM and the Emax was determined as 87%.

Consider `CCCN1N(C)C(=O)CC12CCN(C1CC3(CCN(C(=O)OCC)C3)C1)CC2` (single isomer, unassigned) [6-10 Isomer 2], for which, in experiment [1], the EC50 was 1260 nM and the Emax amounted to 90%. In experiment [2], the EC50 is 39.8 nM and the Emax was found to be 109%.

As to `CCCN1C(=O)OC2(CCN(C3CC4(CCN(C(=O)OCC)C4)C3)CC2)C1CC` (single isomer, unassigned) [4-23 Isomer 2], in experiment [1], the “M1 % Emax cf. ACh” value is reported as “(5) %” and the EC50 was above 20000 nM. For the same compound, in experiment [2], the “M4 % Emax cf. ACh” value is reported as “(3) %” and the EC50 is above 20000 nM.

On to `CCOC(=O)N1CCC2(CC(N3CCC4(CC3)CC(=O)NN4Cc3ccccc3)C2)C1` (single isomer, unassigned) [6-6 Isomer 1], for which, in experiment [1], the “M1 % Emax cf. ACh” value is listed as “(36) %” and the EC50 was 501 nM. Moreover, in experiment [2], the “M4 % Emax cf. ACh” value was “(10) %” and the EC50 is above 20000 nM.

For `CCOC(=O)N1CCC2(CC(N3CCC4(CC3)CN(CC(C)C)C(=O)O4)C2)C1` (single isomer, unassigned) [4-9 Isomer 2], the results for the EC50 in experiment [1] and in experiment [2] were 1000 nM and 631 nM, respectively. Further, the Emax in experiment [1] was 104%; in experiment [2], 76%.

On to `CCOC(=O)N1CC2(CC(N3CCC4(CC3)CNC(=O)C4)C2)C1` [Example 1-1, ethyl 6-(3-oxo-2,8-diazaspiro[4.5]dec-8-yl)-2-azaspiro[3.3]heptane-2-carboxylate], for which, in experiment [1], the EC50 is 316 nM and the Emax is 107%. Also, in experiment [2], the EC50 is above 20000 nM and the maximal effect (Emax) is 66%.

For `CCOC(=O)N1CCC2(CC(N3CCC4(CC3)OC(=O)N(CC#N)C4(C)C)C2)C1` (single isomer, unassigned) [4-42 Isomer 2], in experiment [1], the EC50 is above 20000 nM and the Emax was determined as 16%. In addition, in experiment [2], the EC50 was 200 nM and the Emax amounted to 52%.

For the compound `CCCN1C(=O)OC2(CCN(C3CC4(CCN(C(=O)OCC)C4)C3)CC2)C1CC` (single isomer, unassigned) [4-23 Isomer 1], in experiment [1], the “M1 % Emax cf. ACh” value is “(9) %” and the EC50 is above 20000 nM. Further, in experiment [2], the “M4 % Emax cf. ACh” value was “(33) %” and the EC50 is 501 nM.

In the case of `CCOC(=O)N1CC2(CC(N3CCC4(CC3)OC(=O)NC4(C)C)C2)C1` [Example 2-3, ethyl 6-(4,4-dimethyl-2-oxo-1-oxa-3,8-diazaspiro[4.5]decan-8-yl)-2-azaspiro[3.3]heptane-2-carboxylate], in experiment [1], the EC50 was 3160 nM and the Emax is 92%. Moreover, in experiment [2], the EC50 was 1000 nM and the Emax turned out to be 73%.

In the case of `CCC1N(CC)C(=O)OC12CCN(C1CC3(CCN(C(=O)OC)C3)C1)CC2` (single isomer, unassigned) [4-21 Isomer 2 (racemic)], in experiment [1], the EC50 was 794 nM and the Emax is 77%. Besides, in experiment [2], the EC50 was 200 nM and the Emax came out at 36%.

Take `CCOC(=O)N1CCC2(CC(N3CCC4(CC3)CC(=O)NN4C(C)C)C2)C1` (single isomer, unassigned) [6-5 Isomer 2]: in experiment [1], the EC50 is 2000 nM and the Emax is 56%. For the same compound, in experiment [2], the EC50 was above 20000 nM and the Emax was determined as 20%.

Regarding `CCOC(=O)N1CCC2(CC(N3CCC4(CC3)OC(=O)NC4CC)C2)C1` (single isomer, unassigned) [4-12 Isomer 2], in experiment [1], the “M1 % Emax cf. ACh” value is “(0) %” and the EC50 was above 20000 nM. For the same compound, in experiment [2], the “M4 % Emax cf. ACh” value was “(1) %” and the EC50 was above 20000 nM.

For the compound `CCOC(=O)N1CCC2(CC(N3CCC4(CC3)CN(C(C)C)C(=O)O4)C2)C1` (single isomer, unassigned) [4-8 Isomer 2], the EC50 in experiment [1] was 1260 nM; in experiment [2], 398 nM. For the same compound, the values for the Emax in experiment [1] and in experiment [2] were 63% and 58%, respectively.

`CCC1NC(=O)CC12CCN(C1CC3(CCN(C(=O)OC)C3)C1)CC2` (single isomer, unassigned) [3-4 Isomer 2]: in experiment [1], the “M1 % Emax cf. ACh” value is recorded as “(71) %” and the EC50 is 2000 nM. Also, in experiment [2], the “M4 % Emax cf. ACh” value is “(36) %” and the EC50 was 200 nM.

`CCOC(=O)N1CCC2(CC(N3CCC4(CC3)OC(=O)N(C)C4CC)C2)C1` (single isomer, unassigned) [4-20 Isomer 1]: in experiment [1], the “M1 % Emax cf. ACh” value is reported as “(57) %” and the EC50 was 2000 nM. In experiment [2], the “M4 % Emax cf. ACh” value is listed as “(42) %” and the EC50 is 501 nM.

Consider `CCOC(=O)N1CCC2(CC(N3CCC4(CC3)OC(=O)N(CC)C4CC)C2)C1` (single isomer, unassigned) [4-22 Isomer 2], for which, in experiment [1], the “M1 % Emax cf. ACh” value is given as “(1) %” and the EC50 was above 20000 nM. Also, in experiment [2], the “M4 % Emax cf. ACh” value is “(2) %” and the EC50 was above 20000 nM.
